Assays:
Assay in all cases: relative viability (nuclei count vs DMSO), 5 days (fraction); higher = more cells survive
AZ505 + Pemetrexed = compound: C1CCC(CC1)N(CCNCCC2=C3C(=C(C=C2)O)NC(=O)CO3)C(=O)CCNCCC4=CC(=C(C=C4)Cl)Cl [AZ505] + Nc1nc2[nH]cc(CCc3ccc(C(=O)N[C@@H](CCC(=O)O)C(=O)O)cc3)c2c(=O)[nH]1 [Pemetrexed] (partner 0.2 µM)
Procedure, shortened: (§1)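 Relative viability equals treated-well nuclei counts divided by vehicle-well nuclei counts. Counts came from 4× images of lung cancer cell lines grown in 1536-well plates for 5 days after pin-tool dosing on the day after seeding. Dosing used one drug alone or a fixed anchor-drug dose plus five library-drug doses (not always all listed) in √10 steps, and values are medians of duplicate plates.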

AZ505 + Linsitinib = compound: C1CCC(CC1)N(CCNCCC2=C3C(=C(C=C2)O)NC(=O)CO3)C(=O)CCNCCC4=CC(=C(C=C4)Cl)Cl [AZ505] + C[C@]1(O)C[C@@H](c2nc(-c3ccc4ccc(-c5ccccc5)nc4c3)c3c(N)nccn32)C1 [Linsitinib] (partner 1 µM)
Procedure, shortened: as §1

AZ505 + Dasatinib = compound: C1CCC(CC1)N(CCNCCC2=C3C(=C(C=C2)O)NC(=O)CO3)C(=O)CCNCCC4=CC(=C(C=C4)Cl)Cl [AZ505] + Cc1nc(Nc2ncc(C(=O)Nc3c(C)cccc3Cl)s2)cc(N2CCN(CCO)CC2)n1 [Dasatinib] (partner 0.075 µM)
Procedure, shortened: as §1

Dactolisib + Lapatinib = compound: Cn1c(=O)n(-c2ccc(C(C)(C)C#N)cc2)c2c3cc(-c4cnc5ccccc5c4)ccc3ncc21 [Dactolisib] + CS(=O)(=O)CCNCc1ccc(-c2ccc3ncnc(Nc4ccc(OCc5cccc(F)c5)c(Cl)c4)c3c2)o1 [Lapatinib] (partner 2 µM)
Procedure, shortened: as §1

Cell Line | relative viability (AZ505 + Pemetrexed; first compound 0.253 µM) | relative viability (AZ505 + Pemetrexed; first compound 0.8 µM) | relative viability (AZ505 + Pemetrexed; first compound 2.53 µM) | relative viability (AZ505 + Pemetrexed; first compound 8 µM) | relative viability (AZ505 + Pemetrexed; first compound 0.08 µM) | relative viability (AZ505 + Linsitinib; first compound 0.08 µM) | relative viability (AZ505 + Linsitinib; first compound 0.253 µM) | relative viability (AZ505 + Linsitinib; first compound 0.8 µM) | relative viability (AZ505 + Linsitinib; first compound 2.53 µM) | relative viability (AZ505 + Linsitinib; first compound 8 µM) | relative viability (AZ505 + Dasatinib; first compound 0.08 µM) | relative viability (AZ505 + Dasatinib; first compound 0.253 µM) | relative viability (AZ505 + Dasatinib; first compound 0.8 µM) | relative viability (AZ505 + Dasatinib; first compound 2.53 µM) | relative viability (AZ505 + Dasatinib; first compound 8 µM) | relative viability (Dactolisib + Lapatinib; first compound 0.002 µM) | relative viability (Dactolisib + Lapatinib; first compound 0.006325 µM) | relative viability (Dactolisib + Lapatinib; first compound 0.02 µM) | relative viability (Dactolisib + Lapatinib; first compound 0.06325 µM) | relative viability (Dactolisib + Lapatinib; first compound 0.2 µM)
NCI-H1648 | 0.743 | 0.679 | 0.79 | 0.953 |  |  |  |  |  |  |  |  |  |  |  |  |  |  |  | 
SK-MES-1 | 0.909 | 0.875 | 0.949 | 0.882 | 0.81 | 0.89 | 0.922 | 0.97 | 0.879 | 1.03 | 0.373 | 0.402 | 0.302 | 0.353 | 0.36 | 0.476 | 0.452 | 0.428 | 0.352 | 0.296
SK-LU-1 | 0.72 | 0.684 | 0.799 | 0.757 | 0.671 | 0.45 | 0.592 | 0.798 | 0.588 | 0.765 | 0.182 | 0.168 | 0.163 | 0.161 | 0.16 | 0.857 | 0.782 | 0.728 | 0.509 | 0.27
HCC-366 | 0.174 | 0.179 | 0.2 | 0.16 | 0.142 | 0.534 | 0.552 | 0.672 | 0.599 | 0.678 | 0.604 | 0.625 | 0.78 | 0.527 | 0.608 | 0.897 | 0.988 | 1.03 | 0.445 | 0.613
201T | 0.342 | 0.403 | 0.345 | 0.31 | 0.343 | 1.03 | 0.98 | 0.993 | 1.01 | 0.968 | 0.589 | 0.548 | 0.627 | 0.601 | 0.535 | 1.07 | 1.05 | 0.991 | 0.956 | 0.969
HCC-827 | 0.269 | 0.288 | 0.264 | 0.266 | 0.288 | 0.923 | 0.958 | 0.856 | 0.977 | 0.964 | 0.399 | 0.35 | 0.385 | 0.313 | 0.407 | 0.209 | 0.206 | 0.201 | 0.172 | 0.196
NCI-H647 | 0.155 | 0.195 | 0.196 | 0.184 | 0.158 | 1.08 | 1.36 | 1.04 | 1.29 | 1.22 | 0.233 | 0.104 | 0.158 | 0.194 | 0.162 | 0.912 | 0.799 | 0.646 | 0.184 | 0.169
NCI-H2023 | 0.221 | 0.244 | 0.221 | 0.244 | 0.219 | 0.685 | 0.626 | 0.669 | 0.814 | 0.552 | 0.509 | 0.534 | 0.58 | 0.503 | 0.732 | 0.282 | 0.615 | 0.597 | 0.127 | 0.137
NCI-H520 | 0.684 | 0.777 | 0.81 | 0.875 | 0.483 | 0.911 | 1.1 | 0.85 | 1.04 | 0.955 | 0.198 | 0.217 | 0.181 | 0.229 | 0.26 | 0.888 | 0.753 | 0.655 | 0.221 | 0.128
RERF-LC-KJ | 0.454 | 0.505 | 0.449 | 0.434 | 0.448 | 0.857 | 0.85 | 0.929 | 0.897 | 0.902 | 0.72 | 0.772 | 0.763 | 0.743 | 0.752 | 0.901 | 0.823 | 0.829 | 0.53 | 0.418
A-427 | 0.961 | 0.904 | 0.948 | 1.01 | 0.964 | 1.13 | 1.08 | 1.09 | 1.11 | 1.09 | 0.659 | 0.693 | 0.622 | 0.749 | 0.682 | 1.06 | 1.04 | 0.928 | 0.883 | 0.776
NCI-H441 | 0.272 | 0.278 | 0.308 | 0.262 | 0.254 | 0.513 | 0.51 | 0.662 | 0.543 | 0.509 | 0.35 | 0.619 | 0.659 | 0.549 | 0.694 |  |  |  |  | 
NCI-H1703 |  |  |  |  |  | 0.635 | 0.588 | 1.17 | 0.997 | 0.853 |  |  |  |  |  | 0.688 | 0.796 | 0.716 | 0.379 | 0.314
NCI-H1792 | 0.509 | 0.609 | 1.01 | 0.901 | 0.702 | 0.552 | 0.652 | 0.424 | 0.509 | 0.577 | 0.734 |  | 0.697 | 0.69 | 0.684 | 1.05 | 0.943 | 0.859 | 0.792 | 0.293
Calu-6 |  |  |  |  |  | 0.872 | 0.929 | 0.851 | 0.92 | 0.956 |  |  |  |  |  | 1.18 | 1.08 | 0.98 | 0.645 | 0.531
SW 1573 | 0.851 | 0.928 | 0.869 | 0.876 | 0.761 | 0.666 | 0.828 | 0.849 | 0.872 | 0.829 | 0.476 | 0.605 | 0.414 | 0.594 | 0.426 | 1.13 | 1.08 | 1.04 | 0.458 | 0.367
PC-3 [JPC-3] |  | 1.18 | 1.09 | 1.27 | 0.97 | 0.923 | 0.935 | 0.938 | 0.862 | 0.947 | 0.848 | 0.968 | 0.864 | 0.937 | 0.858 | 0.486 | 0.492 | 0.44 | 0.456 | 0.361
EMC-BAC-2 | 0.491 | 0.417 | 0.499 | 0.451 | 0.412 | 0.767 | 0.834 | 0.813 | 0.822 | 0.879 | 0.312 | 0.329 | 0.322 | 0.35 | 0.354 | 0.921 | 0.856 | 0.889 | 0.703 | 0.604

— the supplement of paper PMC10307832
